Measured values as given in patent publication US20030105082A1, “Methods for improving the therapeutic response of humans having major depression and carrying the gene for apolipoprotein E4” (priority 2001, published 2003).

What was measured:
[1] = 8-week comparison of paroxetine and mirtazapine: plasma drug concentrations by apoE genotype
Method: (§1) A multi-center, randomized, double-blind, 8-week comparison of paroxetine and mirtazapine was performed for 246 nondemented, cognitively intact patients 65 years of age and older with major depression. All patients were genotyped at the apoE locus as discussed further below.
(§2) After an initial evaluation period, the mirtazapine patients started with a 15 mg dose per day. After two weeks of treatment (Day 14), patients' dosages were raised to 30 mg per day. […] Subjects who rate “Much Improved” or “Very Much Improved” on the CGI Scale I continued on the same dose they were receiving during the previous week.
(§3) For paroxetine, the dosing system was the same, except that the starting dosage was 20 mg per day, raised to 30 mg per day, and to a maximum of 40 mg per day.
(§4) To screen patients for the gene, genomic DNA was extracted from EDTA-treated whole blood using the Puregene DNA extraction kit (available from Gentra Systems). ApoE genotypes were determined using restriction isotyping (restriction enzyme isoform genotyping) according to the protocol of Hixson and Vernier (J. Lipid Res. 31:545-548,1990), as set forth in Murphy, G.E. et al., Am. J. Psychiatr. 154:603-608, 1997. Genotypes were determined by two observers blind as to the clinical or neuropathological diagnosis.

[2] = system: patients 65 years of age and older with major depression; test: 8-week double-blind comparison of paroxetine and mirtazapine: Clinical Global Impression Scale (CGI); type: in vivo, human; conditions: day 14; for CGI scores, ε4 carriers compared with noncarriers: mirtazapine p=0.028; for CGI scores, ε4 carriers compared with those without ε4: treatment x genotype interaction p=0.029
Excerpt: Clinical Global Impression Scale (CGI) (Guy, W., ECDEU Assessment Manual for Psychopharmacology, DHEW Publication No. (ADM) 76-338, rev. 1976). The CGI scale is a global 7-point rating of the severity of the illness taking into account the preceding week (CGI-Severity) and a global 7-point rating of the clinical status of the subject since baseline (CGI-Change). A responder is defined as being “Much Improved” or “Very Much Improved”— having a CGI score of […] 2 according to CGI-Change. Thus, a higher CGI-Severity score corresponds to more severe depression whereas a higher CGI-Change score corresponds to lessened depression, or an improvement in alleviating the symptoms of depression.
(§5) All statistical analyses were performed using the SAS software package (available from SAS Institute). For clinical measures of depression (HDRS-21, HDRS-17, GDS, and CGI), analyses of covariance were performed with baseline values as the covariate, and apoE genotype ([…]4 allele carrier vs. non-carrier) and medication (mirtazapine, paroxetine) as the predictors. For remitter and responder analyses of clinical measures of depression, Cochran-Mantel-Haenszel statistics were used. For comparison of medication and genotype groups on baseline demographic measures, two-way analyses of variance were used.

[3] = system: patients 65 years of age and older with major depression; test: 8-week double-blind comparison of paroxetine and mirtazapine: Mini Mental State Examination (MMSE), cognition; type: in vivo, human; conditions: for mean MMSE score, ε4 carriers compared with noncarriers: week 8, full cohort, paroxetine p=0.018
Method: as §1, §2, §3
Mini Mental State Examination (MMSE) (Folstein, M.F. et al., J. Psychiatr. Res. 12:189-198, 1975). This test represents a brief standardized method to grade cognitive mental status. The test assesses orientation, attention, immediate and short-term recall, language, and the ability to follow verbal and written commands. The lower the score, the lower the cognitive mental status.
as §5

[4] = system: patients 65 years of age and older with major depression; test: 8-week double-blind comparison of paroxetine and mirtazapine: Geriatric Depression Scale (GDS); type: in vivo, human; conditions: for GDS scores, ε4 carriers compared with noncarriers / GDS scores, ε4 carriers compared with those without ε4 / 50% reduction in GDS score (GDS 50% responders), ε4 carriers compared with those without ε4: day 14; for GDS scores, ε4 carriers compared with noncarriers: mirtazapine p=0.025; for GDS scores, ε4 carriers compared with those without ε4 / 50% reduction in GDS score (GDS 50% responders), ε4 carriers compared with those without ε4 / 50% reduction in GDS score, ε4 carriers compared with noncarriers: full cohort; for GDS scores, ε4 carriers compared with those without ε4: mirtazapine p=0.021; for 50% reduction in GDS score (GDS 50% responders), ε4 carriers compared with those without ε4: mirtazapine p=0.046; for 50% reduction in GDS score, ε4 carriers compared with noncarriers: mirtazapine p<0.005
Method: Geriatric Depression Scale (GDS) (Yesavage, J.A. et al., J. Psychiatr. Res. 17:37-49, 1983), a self-rating scale developed specifically for rating depression in the elderly. In the GDS, a lower rating signifies less depression. GDS 50% responders are defined as subjects with a decrease on a post-baseline assessment of at least 50% as compared to baseline.
as §5

[5] = system: patients 65 years of age and older with major depression; test: 8-week double-blind comparison of paroxetine and mirtazapine: Hamilton Depression Rating Scale (HDRS-17, HDRS-21); type: in vivo, human; conditions: for HDRS-21 scores, ε4 carriers compared with those without ε4: treatment x genotype interaction p=0.033; for HDRS-17 scores, ε4 carriers compared with those without ε4: treatment x genotype interaction p=0.036; for antidepressant response / onset of action, mirtazapine vs paroxetine / early antidepressant response, ε4 carriers compared with non-ε4 carriers: early weeks of treatment, summary of the example
Excerpt: Hamilton Depression Rating Scale (HDRS; 17 and 21 item versions of a structured interview) (Hamilton, M., J. Neurol. Neurosurg. Psychiatr. 23:56-62, 1960; Hamilton, M., Br. J. Soc. Clin. Psychol. 6:278-296,1967). […] In other words, a lower rating in the HDRS scale signifies less depression. In contrast, HDRS remitters, which are those patients showing the least depression, are defined as subjects who have an HDRS-17 score of less than 7 at a post-baseline visit.
as §5

[6] = 8-week comparison of paroxetine and mirtazapine: discontinuation due to adverse events by apoE genotype
Method: as §1, §2, §3, §4

[7] = day 14, Caucasian patients, p=0.006
[8] = day 14, patients carrying an apoE ε4 allele
[9] = day 14, patients with an apoE ε4 allele, remitter = HDRS-17 score less than 7
[10] = day 14, patients without an apoE ε4 allele

mean MMSE score, ε4 carriers compared with noncarriers [3] | Structure (SMILES) | CGI scores, ε4 carriers compared with noncarriers ([2]; Caucasian patients) | CGI scores, ε4 carriers compared with those without ε4 ([2]; full cohort) | GDS scores, ε4 carriers compared with noncarriers ([4]; Caucasian patients) | GDS scores, ε4 carriers compared with those without ε4 [4] | 50% reduction in GDS score (GDS 50% responders), ε4 carriers compared with those without ε4 [4] | 50% reduction in GDS score, ε4 carriers compared with noncarriers ([4]; day 28) | HDRS scores, ε4 carriers compared with noncarriers ([5]; day 14, Caucasian patients) | HDRS-21 scores, ε4 carriers compared with those without ε4 ([5]; day 14, full cohort) | HDRS-17 scores, ε4 carriers compared with those without ε4 ([5]; day 14, full cohort) | HDRS-21 50% responders [5, 8] | HDRS-17 remitters [5, 9] | HDRS-21 50% responders [5, 10] [%] | antidepressant response / onset of action, mirtazapine vs paroxetine [5] | early antidepressant response, ε4 carriers compared with non-ε4 carriers [5] | number of patients who discontinued due to adverse events, ε4 carriers vs noncarriers ([6]; full cohort) | other results
no effect | CN1CCN2c3ncccc3Cc3ccccc3C2C1 (stereo not shown) [mirtazapine, 1,2,3,4,10,14b-hexahydro-2-methylpyrazino [2,1a]pyrido[2,3-c]benzazepine] | significantly better | significantly lower scores | significantly lower | large decrease in GDS scores | significantly more likely | significantly more | greater improvement | significantly lower scores | significantly lower scores | 48% | 28% | 29.4 | higher rate of antidepressant response | significantly stronger | no significant differences | plasma drug concentrations, ε4 carriers vs non-ε4 carriers ([1]; in vivo): no differences; CGI scores, mirtazapine vs paroxetine treated subjects ([2]; Caucasian patients, p=0.037): significantly better; improvement in CGI scores, mirtazapine-treated vs paroxetine-treated patients ([2]; full cohort): Significantly greater improvement; patients showing a 50% reduction in GDS score ([4]; day 28, Caucasian patients, noncarriers): 16.9%; patients showing a 50% reduction in GDS score ([4]; day 28, Caucasian patients, ε4 carriers): 41.7%; improvement in HDRS-17 scores, mirtazapine-treated vs paroxetine-treated patients ([5]; day 7, full cohort): significantly greater improvement; mean HDRS-17 scores, mirtazapine vs paroxetine [5, 7]: significantly lower; mean HDRS-21 scores, mirtazapine vs paroxetine [5, 7]: significantly lower; percentage of ε4 carriers responding to medication treatment, mirtazapine vs paroxetine ([5]; day 14, Caucasian subjects, each of 50% reduction in HDRS-17, HDRS-21, HDRS-17 remission, 50% reduction in GDS): greater; improvement in HDRS-17 scores, mirtazapine-treated vs paroxetine-treated patients ([5]; day 14, full cohort): Significantly greater improvement; improvement in HDRS-21 scores, mirtazapine-treated vs paroxetine-treated patients ([5]; day 14, full cohort): Significantly greater improvement; HDRS-17 50% responders, ε4 carriers compared with those without ε4 ([5]; day 14, p=0.049): significantly more; HDRS-17 remitters [5, 10]: 7.1%; number of patients who discontinued due to adverse events, ε4 carriers vs noncarriers ([6]; in vivo): no significant differences
significantly lower | Fc1ccc([C@@H]2CCNC[C@H]2COc2ccc3c(c2)OCO3)cc1 [paroxetine] | no differences | higher scores | no effect | no significant difference | no difference | no effect of apoE genotype | less improvement | higher scores | higher scores | none | none | 23.3 | slower onset of anti-depressant action | particularly slow to respond | no significant differences | plasma drug concentrations, ε4 carriers vs non-ε4 carriers ([1]; Caucasian subjects): no differences; plasma drug concentrations, ε4 carriers vs non-ε4 carriers ([1]; full cohort): no differences; MMSE score, ε4 carriers compared with those without ε4 ([3]; Caucasian subjects, trend, p=0.05): lower MMSE score; effect of the ε4 genotype on the number of patients showing a 50% reduction in GDS ([4]; day 28, Caucasian patients): no significant effect; patients showing a 50% decrease in HDRS-17 score over baseline (HDRS-17 50% responders) ([5]; day 14, patients with an apoE ε4 allele): none; number of patients who discontinued due to adverse events, ε4 carriers vs noncarriers ([6]; Caucasian subjects): no significant differences
